Paper PMC6332026, “Synthesis and Pharmacochemistry of New Pleiotropic Pyrrolyl Derivatives” (Molecules, 2015)
pIC50: −log10 of the molar value.

How the values were obtained:
[1] = Superoxide radical scavenging activity (non-enzymatic, PMS/NADH, NBT method); details: 100 μM
Text: Superoxide anion radical is an active form of oxygen, and it is the product of the one-electron reduction of […] oxygen. Herein, superoxide radicals were formed by mixing phenazine methosulfate (PMS) with NADH and air-oxygen. The production of radicals was estimated with the nitroblue-tetrazolium method (NBT). From the tested pyrroles, Compounds 2i and 2iii were equipotent (57%) scavengers. […] In contrast, the dipole moment appeared to be important. The values of the dipole, as calculated by the program Spartan v.5.1.3.
The superoxide anion radicals were produced non-enzymatically by mixing phenazine methosulfate (PMS) with NADH and air-oxygen. The production of superoxide radicals was estimated with the nitroblue-tetrazolium (NBT) method with 3 μΜ PMS, 78 μΜ NADH and 25 μΜ NBT in 19 μΜ phosphate buffer pH 7.4. The absorbance was measured at 560 nm at room temperature. The tested compounds were added in the mixture 2 min before the addition of NADH [52].

[2] = Inhibition of heme-dependent lipid peroxidation of linoleic acid (TBA method); details: pH 7.4, 37 °C
Experimental: The anti-lipid peroxidation activity was determined through the inhibition of heme-dependent lipid peroxidation. The peroxidation of sodium linoleate is induced from a mixture of heme and hydrogen peroxide, which produces free radicals from the side chains of amino acids. The assay is performed at pH 7.4 with a phosphate buffer, and the products of peroxidation are identified with the thiobarbituric acid method (TBA). In particular, malonic dialdehyde, a final product of lipid peroxidation, reacts with TBA and forms a colored product, whose absorbance is measured at 535 nm. […] Compounds 2ii and 2vi with low Clog P values are weak inhibitors of lipid peroxidation. It seems that the increase of volume of Ar^1, measured as molar refractivity MR (Ar^1), enhances IC50 values and reduces the inhibitory activity (2i and 2iii; and 2ii, 2iv and 2vi). For derivatives 2iv and 2v, the presence of an electron-acceptor, e.g., a chloro-substituent on the phenyl ring (Ar^2), diminishes the anti-lipid peroxidation activity.
Firstly, 0.4 mL of heme (50 μΜ), 0.25 mL of sodium linoleate (400 μΜ), 0.1 mL of the solutions of the tested compounds (concentrations varying from 10–100 μΜ in DMSO) and 0.25 mL of H2O2 (500 μΜ) were incubated for 10 min in 37 °C in a phosphate buffer (KH2PO4–KOH 50 mM, pH 7.4). The peroxidation products were identified with the reaction of thiobarbituric acid, by adding successively 0.5 mL of 40% trichloroacetic acid (TCA) and 0.5 mL of 2% of thiobarbituric acid (TBA). The addition was followed by stirring and heating at 90 °C for 20 min, and then, 1 mL of acetic acid and 1 mL of chloroform were added and the absorbance measured at 535 nm. IC50 values were determined.

[3] = Lipophilicity as RM values by reverse-phase thin layer chromatography (RPTLC); assay type: physicochemical; details: methanol/water 75/25 v/v with ammonia drops
Text: Since lipophilicity is a significant physicochemical property determining the absorption, distribution, metabolism and excretion properties (ADME) of drugs, we attempted to determine experimentally the lipophilicity as RM values with reverse-phase thin layer chromatography (RPTLC). Lipophilicity was also theoretically calculated as Clog P values. According to the calculated Clog P values, the most lipophilic compounds were 2iii (6.37) and 2v (6.04). However, this observation was not supported by the RM values, since Compound 2iii presented very low lipophilicity (−0.061). Furthermore, the lipophilicity of Compound 2v could not be determined experimentally under the reported conditions. Attempts to correlate Clog P and RM values failed. From our results (Table 2), it can be concluded that RM values could not be used as a successful relative measure of the overall lipophilic/hydrophilic properties of these molecules. Tentatively, this can be attributed to the different nature of the hydrophilic and lipophilic phases in the two systems. Clog P refers to n-octanol/water, whereas RM in this case refers to methanol/water. Moreover, it is likely that pyrrole derivatives form hydrogen bonds within the hydrophilic phase.
Reverse-phase thin layer chromatography (RPTLC) was used for the determination of RM values. Silica gel plates were saturated with 5% v/v liquid paraffin in petroleum ether, and the mobile phase was methanol/water (75/25 v/v) with the addition of ammonia drops. Spots were detected under UV light. RM values were determined by the corresponding Rf values (from five measurements for each compound) using the equation [43]: RM = log[(1/Rf) − 1](1)

[4] = Interaction with the stable free radical DPPH (reducing activity); details: for interaction with DPPH: 10 μM compound; for RA % (interaction with DPPH): DPPH 50 μM
Experimental: 2,2-Diphenyl-1-picrylhydrazyl (DPPH) is a lipophilic, free, stable radical, which absorbs at 517 nm (violet color). Upon reduction, decolorization is observed that is stoichiometric to the number of received electrons and is representative of the antioxidant ability of compounds. […] This interaction, which indicates their radical scavenging ability in an iron-free system, was measured at 100 and 1000 μM after 20 and 60 min, whereas the final concentration of DPPH was stable at 50 μΜ.
[…] The absorbance was measured at 517 nm after 20 and 60 min at room temperature.

[5] = test system: carrageenan-induced rat paw edema; assay: Inhibition of rat paw edema induced by carrageenan; assay type: in vivo, Fischer 344 rats; details: Rattus norvegicus, ip; 0.01 mmol/kg body weight, intraperitoneally, 3.5 h; read-out: CPE % inhibition of rat paw edema induced by carrageenan
Experimental: The pyrrolyl derivatives, as well as their precursor chalcones were tested in vivo for the inhibition of rat paw edema induced by carrageenan. […] […]. For Compounds 2i, 2iii, 2iv and 2v, we determined their ED50 values. […]. The finding supports the primary idea of this design.
Edema was induced in the right hind paw of Fischer 344 rats (150–200 g). In the study, both males and females were included, with the exemption of pregnant females. The animals, which have been bred in our laboratory, were housed under standard conditions and received a diet of commercial food pellets and water ad libitum during maintenance. One hour before the onset of the experiment, food and water were removed. The tested compounds (dose 0.01 mmol/kg body weight) were diluted in water with a few drops of Tween 80, and they were administered intraperitoneally simultaneously with the intradermal injection of 0.1 mL 2% of carrageenan in water. The animals were euthanatized 3.5 h after the carrageenan administration. The difference between the weight of injected and uninjected paws was calculated for each animal and was compared to control animals, which were treated with water. Indomethacin was used as a reference compound in 0.01 mmol/kg. The results were expressed as the percent inhibition of the edema (CPE %).

COX-2 = target: T1, COX-2 (Homo sapiens, UniProt P35354); assay: Inhibition of cycloxygenase-2 (colorimetric TMPD assay)
T1 sequence (P35354 18-604): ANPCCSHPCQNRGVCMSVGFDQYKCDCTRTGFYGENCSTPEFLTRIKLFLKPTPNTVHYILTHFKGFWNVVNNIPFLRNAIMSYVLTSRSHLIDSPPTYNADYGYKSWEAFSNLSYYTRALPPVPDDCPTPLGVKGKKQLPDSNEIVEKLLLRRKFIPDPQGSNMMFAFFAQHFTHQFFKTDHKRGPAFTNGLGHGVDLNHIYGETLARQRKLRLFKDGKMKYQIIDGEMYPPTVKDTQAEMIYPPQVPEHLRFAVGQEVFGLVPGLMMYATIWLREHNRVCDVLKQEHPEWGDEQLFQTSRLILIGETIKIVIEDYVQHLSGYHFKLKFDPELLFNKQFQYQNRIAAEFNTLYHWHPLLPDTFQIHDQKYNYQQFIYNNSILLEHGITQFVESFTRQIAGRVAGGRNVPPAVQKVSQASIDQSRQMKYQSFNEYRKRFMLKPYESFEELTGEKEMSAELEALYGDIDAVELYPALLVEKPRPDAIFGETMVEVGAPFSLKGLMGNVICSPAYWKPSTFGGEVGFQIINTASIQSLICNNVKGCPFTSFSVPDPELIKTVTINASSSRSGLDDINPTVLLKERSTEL
Experimental: The inhibition of COX-2, as a peroxidase, was determined by a colorimetric assay with the oxidation of N,N,N′,N′-tetramethyl-p-phenylenediamine (TMPD).
COX-2 inhibitory activity was determined by using arachidonic acid (AA) as a substrate in buffer (0.1 M Tris pH 8.5) and TMPD as a co-substrate.

trypsin = target: T2, trypsin (Bos taurus, UniProt P00760); assay: Inhibition of the proteolytic activity of trypsin; assay type: biochemical; details: bovine albumin substrate, pH 7.6; read-out: TP IC50 (inhibition of trypsin)
T2 construct: purchased Sigma Chemical, Co. (St. Louis, MO, USA); host or cells: bovine pancreas
T2 sequence (P00760 24-246): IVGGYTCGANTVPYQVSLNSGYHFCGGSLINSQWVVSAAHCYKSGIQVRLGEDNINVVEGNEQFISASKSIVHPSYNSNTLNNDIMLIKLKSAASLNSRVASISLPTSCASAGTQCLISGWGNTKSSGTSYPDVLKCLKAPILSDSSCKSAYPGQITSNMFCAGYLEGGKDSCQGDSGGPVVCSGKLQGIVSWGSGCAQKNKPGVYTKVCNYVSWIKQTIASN
Text: Trypsin is an enzyme with an active role in inflammation. Thus, we studied the anti-proteolytic ability of the pyrrole derivatives, using salicylic acid as a reference compound. […] Comparing Compounds 2iv and 2v, the insertion of an electron-acceptor substituent (Cl) on the phenyl ring (substituent Ar^2) and the simultaneous increase of the volume of substituent Ar^2 (expressed as molar refractivity) led to an enhancement of the anti-proteolytic activity.
Carrageenan, type K, was commercially available. Cycloxygenase-2 (COX-2) and interleukin-6 (IL-6) EIA Kit, Item No. 583371 were purchased from Cayman. Trolox was obtained from Aldrich Chemical Co. (Milwaukee, WI, USA). All starting materials were obtained from commercial sources, and they were used without further purification.
The tested compounds (concentrations varying from 10 μΜ–100 μΜ in DMSO) were dissolved in a phosphate buffer (0.1 M K2HPO4–NaH2PO4·2H2O, pH = 7.6), and 0.2 mL of trypsin 0.075 mg/mL were added. The mixture was incubated at room temperature for 20 min, and then, 1 mL of bovine albumin (6 g/100 mL) was added. The mixture was incubated at 37 °C for 30 min. The reaction was stopped with the addition of 1 mL of trichloroacetic acid (5% w/w) Separation of the phases followed, with measurement of the supernatants at 280 nm at room temperature. IC50 values were determined.

## O=C(O)/C=C/c1ccc(O)c(O)c1 [Caffeic acid, reference compound]
[1]
  O2^•− % superoxide radical scavenging activity: 86.1%
[2]; read-out: LP IC50 (inhibition of heme-dependent lipid peroxidation of linoleic acid)
  pIC50: 5.22

## CN(C)c1ccc(/C=C/c2c[nH]cc2C(=O)c2ccccc2)cc1 [Compound 2ii, (E)-{4-[4-(Dimethylamino)styryl]-1H-pyrrol-3-yl}(phenyl)methanone]
[3]
  RM: 0.073
[4]; 20 min
  interaction with DPPH: 35%
[4]; 60 min
  interaction with DPPH: 40%
[4]; 100 μM compound, 20 min
  RA % (interaction with DPPH): 86%
[4]; 100 μM compound, 60 min
  RA % (interaction with DPPH): 88%
[4]; 1000 μM compound, 20 min
  RA % (interaction with DPPH): 99%
[4]; 1000 μM compound, 60 min
  RA % (interaction with DPPH): 96%
[2]
  LP IC50 (inhibition of heme-dependent lipid peroxidation of linoleic acid): inactive
[5]
  inhibition in vivo at 10 µmol/kg: 89%
other
  melting point: 219 to 220 °C
COX-2; read-out: COX-2 % inhibition
  inhibition at 100 µM: 47%

## O=C(c1ccccc1)c1c[nH]cc1-c1ccc2[nH]ccc2c1 [Compound 2vi, [4-(1H-Indol-5-yl)-1H-pyrrol-3-yl](phenyl)methanone]
[3]
  RM: −0.685
[1]
  O2^•− % superoxide radical scavenging activity: 86%
[2]
  LP IC50 (inhibition of heme-dependent lipid peroxidation of linoleic acid): inactive
other
  melting point: 247 to 248 °C
COX-2; 100 μM
  COX-2 % inhibition: inactive

## O=C(O)c1ccccc1O [Salicylic acid, reference compound]
trypsin
  pIC50: 4.00
